Source: US6569878B1, “Substituted 4-amino-thiazol-2-yl compounds as cyclin-dependent kinase inhibitors” (Agouron Pharmaceuticals Inc., priority 1997, dated 2003)
Read-outs that look alike come from different tables or passages of the source.

Experiments:
CDK2/cyclin A = biological target: T1, CDK2/cyclin A (Homo sapiens, UniProt P24941); assay: Inhibition of CDK2/cyclin A retinoblastoma kinase activity; format: biochemical; details: read-out: Ki CDK 2/A
T1 construct: made in house; host or cells: CDK2: insect cells (baculovirus); cyclin A: E. coli, then limited proteolysis
Method: Cyclin-dependent kinase activity was measured by quantifying the enzyme-catalyzed, time-dependent incorporation of radioactive phosphate from [^32P]ATP or [^33P]ATP into a protein substrate. Unless noted otherwise, assays were performed in 96-well plates in a total volume of 50 μL, in the presence of 10 mM HEPES (N-[2-hydroxyethyl]piperazine-N′-[2-ethanesulfonic acid]) (pH 7.4), 10 mM MgCl2, 25 μM adenosine triphosphate (ATP), 1 mg/mL ovalbumin, 5 μg/mL leupeptin, 1 mM dithiothreitol, 10 mM β-glycerophosphate, 0.1 mM sodium vanadate, 1 mM sodium fluoride, 2.5 mM ethylene glycol-bis(β-aminoethyl ether)-N,N,N′N′-tetraacetic acid (EGTA), 2% (v/v) dimethylsulfoxide, and 0.03-0.4 μCi [^32/33P]ATP per reaction. Reactions were initiated with enzyme, incubated at 30° C., and terminated after 20 minutes by the addition of ethylenediaminetetraacetic acid (EDTA) to 250 mM. The phosphorylated substrate was then captured on a nitrocellulose or phosphocellulose membrane using a 96-well filtration manifold, and unincorporated radioactivity was removed by repeated washing with 0.85% phosphoric acid. Radioactivity was quantified by exposing the dried membranes to a phosphorimager.
(§1) Apparent Ki values were measured by assaying enzyme activity in the presence of different inhibitor compound concentrations and subtracting the background radioactivity measured in the absence of enzyme. The kinetic parameters (kcat, Km for ATP) were measured for each enzyme under the usual assay conditions by determining the dependence of initial rates on ATP concentration. Inhibition data were fit to an equation for competitive inhibition using Kaleidagraph (Synergy Software), or were fit to an equation for competitive tight-binding inhibition using the software KineTic (BioKin, Ltd.).
CDK2 was purified using published methodology (Rosenblatt et al., “Purification and Crystallization of Human Cyclin-dependent Kinase 2,” J. Mol. Biol., vol. 230, 1993, pp. 1317-1319) from insect cells that had been infected with a baculovirus expression vector. […] Purified, proteolyzed cyclin A was included in the assay at a three- to five-fold molar excess to CDK2. Alternatively, a complex of CDK2 and proteolyzed cyclin A was prepared and purified by gel filtration. The substrate for this assay was the same Rb substrate fragment used for the CDK4 assays, and the methodology of the CDK2/cyclin A and the CDK4/cyclin D3 assays was essentially the same, except that CDK2 was present at 150 nM or 5 nM. Ki values were measured as described above.

[1] = biological target: T2, complex of human CDK4 and cyclin D3 (Homo sapiens, UniProt P11802); assay: Inhibition of CDK4/cyclin D retinoblastoma kinase activity (D-type cyclin is D3); format: biochemical; details: superscript a: D-type cyclin is D3; apparent Ki; read-out: Ki CDK 4/D
T2 construct: made in house; host or cells: insect cells, co-infected with baculovirus
Method: Cyclin-dependent kinase activity was measured by quantifying the enzyme-catalyzed, time-dependent incorporation of radioactive phosphate from [^32P]ATP or [^33P]ATP into a protein substrate. […] Reactions were initiated with enzyme, incubated at 30° C., and terminated after 20 minutes by the addition of ethylenediaminetetraacetic acid (EDTA) to 250 mM. […] Radioactivity was quantified by exposing the dried membranes to a phosphorimager.
as §1
Phosphorylated Rb substrate was captured by microfiltration on a nitrocellulose membrane and quantified using a phosphorimager as described above. For measurement of tight-binding inhibitors, the enzyme complex concentration was lowered to 5 nM, and the assay duration was extended to 60 minutes, during which the time-dependence of product formation was linear.

T2 sequence (P11802 whole entry): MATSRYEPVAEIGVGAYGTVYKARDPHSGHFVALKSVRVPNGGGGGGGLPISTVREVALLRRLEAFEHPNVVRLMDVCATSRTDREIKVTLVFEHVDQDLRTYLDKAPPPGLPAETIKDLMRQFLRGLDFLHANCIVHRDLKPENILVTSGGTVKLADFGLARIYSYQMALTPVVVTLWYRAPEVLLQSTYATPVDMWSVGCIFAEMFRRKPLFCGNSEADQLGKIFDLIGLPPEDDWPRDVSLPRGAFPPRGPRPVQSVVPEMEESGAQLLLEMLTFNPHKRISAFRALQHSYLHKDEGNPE
T2 sequence (P30281 whole entry partner): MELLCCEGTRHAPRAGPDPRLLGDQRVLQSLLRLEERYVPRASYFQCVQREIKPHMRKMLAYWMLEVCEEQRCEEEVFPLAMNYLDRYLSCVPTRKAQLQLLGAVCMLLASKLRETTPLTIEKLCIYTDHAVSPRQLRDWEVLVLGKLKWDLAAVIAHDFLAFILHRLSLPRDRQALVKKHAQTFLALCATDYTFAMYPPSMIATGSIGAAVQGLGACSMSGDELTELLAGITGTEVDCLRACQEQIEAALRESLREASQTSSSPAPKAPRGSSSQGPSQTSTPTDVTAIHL

Structure (SMILES) | Ki (CDK2/cyclin A) | Ki [1] | Ki (CDK2/cyclin A; μM)
Nc1nc(Nc2ccc(S(N)(=O)=O)cc2)sc1C(=O)c1cc(Cl)sc1Cl [C(92), 4-[4-Amino-5-(2,5-dichloro-thiophene-3-carbonyl)-thiazol-2-ylamino]-benzenesulfonamide] | 0.0094 µM | 63 nM | 
Cc1c(C(=O)c2sc(Nc3ccc(S(N)(=O)=O)cc3)nc2N)ncn1C [C(76), 4-[4-Amino-5-(1,5-dimethyl-1H-imidazole-4-carbonyl)-thiazol-2-ylamino]-benzenesulfonamide] | 0.507 µM | 2000 nM | 
COC(=O)c1sc(Nc2ccc3nc[nH]c3c2)nc1N [A(12), 4-Amino-2-(1H-benzoimidazol-6-ylamino)-thiazole-5-carboxylic Acid Methyl Ester] | 4.1 µM | 9400 nM | 
Cc1cccc([N+](=O)[O-])c1C(=O)c1sc(Nc2ccc3nc[nH]c3c2)nc1N [C(61), [4-Amino-2-(1H-benzoimidazol-6-ylamino)-thiazol-5-yl]-(2-methyl-6-nitro-phenyl)-methanone] | 1.2 µM | 120 nM | 
Cc1cc(C)c(C(=O)c2sc(Nc3ccc4nc[nH]c4c3)nc2N)c(C)c1 [C(57), [4-Amino-2-(1H-benzoimidazol-6-ylamino)-thiazol-5-yl]-(2,4,6-trimethyl-phenyl)-methanone] | 0.259 µM | 30 nM | 
CCOC(=O)c1ccc(C(=O)c2sc(Nc3ccc(S(N)(=O)=O)cc3)nc2N)cc1 [C(34), Ethyl 4-[4-Amino-2-(4-sulfamoyl-phenylamino)-thiazole-5-carbonyl]-benzoate] | 0.131 µM | 140 nM | 
Cc1cc(C(=O)c2sc(Nc3ccc(N4CCN(C)CC4)cc3)nc2N)c(C)s1 [C(90), {4-Amino-2-[4-(4-methyl-piperazin-1-yl)-phenylamino]-thiazol-5-yl}-(2,5-dimethyl-thiophen-3-yl)-methanone] | 0.771 µM | 27 nM | 
Nc1nc(Nc2ccc3nc[nH]c3c2)sc1C(=O)c1c(Cl)ccc([N+](=O)[O-])c1Cl [C(89), [4-Amino-2-(1H-benzoimidazol-6-ylamino)-thiazol-5-yl]-(2,6-dichloro-3-nitro-phenyl)-methanone] | 0.326 µM | 55 nM | 
Nc1nc(Nc2ccc3nc[nH]c3c2)sc1C(=O)c1sc(Br)cc1Br [C(72), [4-Amino-2-(1H-benzoimidazol-6-ylamino)-thiazol-5-yl]-(3,5-dibromo-thiophen-2-yl)-methanone] | 0.169 µM | 13.5 nM | 
Cc1ccsc1C(=O)c1sc(Nc2ccc(N3CCN(C(=O)OC(C)(C)C)CC3)cc2)nc1N [C(104), 4-Amino-2-[4-(1-tert-butoxycarbonyl-piperazine-4-yl)-phenylamino]-thiazol-5-yl-(3-methyl-thiophen-2-yl)-methanone] | 0.73 µM | 190 nM | 
COc1ccc(C(=O)c2sc(Nc3ccc(S(N)(=O)=O)cc3)nc2N)c(OC)c1 [C(33), 4-[4-Amino-5-(2,4-dimethoxy-benzoyl)-thiazol-2-ylamino]-benzenesulfonamide] | 0.02 µM | 57 nM | 
Cc1ccc(C(=O)c2sc(Nc3ccc(N4CCOCC4)cc3)nc2N)c(C)c1 [C(54), [4-Amino-2-(4-morpholin-4-yl-phenylamino)-thiazol-5-yl]-(2,4-dimethyl-phenyl)-methanone] | 0.453 µM | 34 nM | 
Cc1cccc(C)c1C(=O)c1sc(Nc2ccc3nc[nH]c3c2)nc1N [C(60), [4-Amino-2-(1H-benzoimidazol-6-ylamino)-thiazol-5-yl]-(2,6-dimethyl-phenyl)-methanone] | 0.574 µM | 56 nM | 
CC(=O)Nc1ccc(Cl)c(C(=O)c2sc(Nc3ccc(N4CCN(C(=O)OC(C)(C)C)CC4)cc3)nc2N)c1Cl [C(106)] | 1.46 µM | 134 nM | 
Cc1cccc(C)c1C(=O)c1sc(Nc2ccc(N3CCOCC3)cc2)nc1N [C(62), [4-Amino-2-(4-morpholin-4-yl-phenylamino)-thiazol-5-yl]-(2,6-dimethyl-phenyl)-methanone] | 1.71 µM | 72 nM | 
Nc1nc(Nc2ccc(S(N)(=O)=O)cc2)sc1C(=O)[C@@H]1CCCN1C(=O)OCc1ccccc1 [C(65), 2S-[4-Amino-2-(4-sulfamoyl-phenylamino)-thiazole-5-carbonyl]-N-carbobenzyloxy-pyrrolidine] |  | 38000 nM | 14.3 µM
Cc1cccc(Br)c1C(=O)c1sc(Nc2ccc(N3CCOCC3)cc2)nc1N [C(84), [4-Amino-2-(4-morpholin-4-yl-phenylamino)-thiazol-5-yl]-(2-bromo-6-methyl-phenyl)-methanone] | 1.04 µM | 53 nM | 
Nc1nc(Nc2ccc(S(N)(=O)=O)cc2)sc1C(=O)c1ccc2c(c1)CCC(=O)N2 [C(51), 4-[4-Amino-5-(2-oxo-1,2,3,4-tetrahydro-quinoline-6-carbonyl)-thiazol-2-ylamino]-benzenesulfonamide] | 0.0333 µM | 85 nM | 
Cc1ccc(C)c(C(=O)c2sc(Nc3ccc4nc[nH]c4c3)nc2N)c1C [C(58), [4-Amino-2-(1H-benzoimidazol-6-ylamino)-thiazol-5-yl]-(2,3,6-trimethyl-phenyl)-methanone] | 0.306 µM | 34 nM | 
Cc1cncc(C)c1C(=O)c1sc(Nc2ccc(S(N)(=O)=O)cc2)nc1N [C(59), [4-Amino-2-(4-sulfamoyl-phenylamino)-thiazol-5-yl]-(3,5-dimethyl-pyridin-4-yl)-methanone] | 0.135 µM | 100 nM | 
Cc1cccc(-c2ccccc2)c1C(=O)c1sc(Nc2ccc3nc[nH]c3c2)nc1N [C(67), [4-Amino-2-(1H-benzoimidazol-6-ylamino)-thiazol-5-yl]-(3-methyl-biphenyl-2-yl)-methanone] |  | 3170 nM | 13.2 µM
COc1ccc(C(=O)c2sc(Nc3ccc(N(C)C)cc3)nc2N)cc1 [C(3), [4-Amino-2-(4-dimethylamino-phenylamino)-thiazol-5-yl]-(4-methoxy-phenyl)-methanone] | 4.7 µM | 1200 nM | 
Nc1nc(Nc2ccc(-c3ncc[nH]3)cc2)sc1C(=O)c1c(Cl)cc(C(F)(F)F)cc1Cl [C(53), {4-Amino-2-[4-(1H-imidazol-2-yl)-phenylamino]-thiazol-5-yl}-(2,6-dichloro-4-trifluoromethyl-phenyl)-methanone] | 0.18 µM | 85 nM | 
Cc1cccc(-c2ccccc2)c1C(=O)c1sc(Nc2ccc(N3CCOCC3)cc2)nc1N [C(83), [4-Amino-2-(4-morpholin-4-yl-phenylamino)-thiazol-5-yl]-(3-methyl-biphenyl-2-yl)-methanone] |  | 1800 nM | 32 µM
Cc1cc([N+](=O)[O-])sc1C(=O)c1sc(Nc2ccc3nc[nH]c3c2)nc1N [C(78), [4-Amino-2-(1H-benzoimidazol-6-ylamino)-thiazol-5-yl]-(3-methyl-5-nitro-thiophen-2-yl)-methanone] | 0.083 µM | 32 nM | 
Cc1ccc(C(=O)c2sc(Nc3ccc(-n4ccnc4)cc3)nc2N)c(C)c1 [C(41), [4-Amino-2-(4-imidazol-1-yl-phenylamino)-thiazol-5-yl]-(2,4-dimethyl-phenyl)-methanone] | 0.336 µM | 350 nM | 
Nc1nc(Nc2ccc3nc[nH]c3c2)sc1C(=O)[C@@H]1CCCN1C(=O)OCc1ccccc1 [C(64), 2S-[4-Amino-2-(1H-benzoimidazol-5-yl-amino)-thiazole-5-carbonyl]-N-carbobenzyloxy-pyrrolidine] |  | 44000 nM | 42 µM
Nc1nc(Nc2ccc3nc[nH]c3c2)sc1C(=O)c1c(F)cccc1F [C(79), [4-Amino-2-(1H-benzoimidazol-6-ylamino)-thiazol-5-yl]-(2,6-difluoro-phenyl)-methanone] | 0.162 µM | 54 nM | 
Cc1ccsc1C(=O)c1sc(Nc2ccc(-n3ccnc3)cc2)nc1N [C(42), [4-Amino-2-(4-imidazol-1-yl-phenylamino)-thiazol-5-yl]-(3-methyl-thiophen-2-yl)-methanone] | 0.207 µM | 750 nM | 
